Entries after “also recorded” stand apart in the source; their conditions may differ.
How the values were obtained:
[1] = tested on: HCAR cells; experiment: Calcein AM viability assay, HCAR cells, 72 h; format: cell-based, hamster; settings: for IC50: Cricetulus griseus
Method: (§1) The effects of EvoSiR probes and evocalcet on the viability of CCL39 and HCAR cells were evaluated using the Calcein AM assay as described by the manufacturer’s protocol (AAT Bioquest, 22002) with a working concentration of 10 μM. For the assay, cells were incubated in various concentrations of the compounds for 72 h. For positive controls, cells were incubated in culture media containing maximum 10% DMSO in a two-step dilution series for 72 h. Upon incubation in the Calcein AM solution for 1 h at 37 °C, the fluorescence readouts were retrieved using the Tecan GENios pro microplate reader (λex = 485 nm, λem = 535 nm, gain = 25 AU)

[2] = tested on: CCL39 cells; experiment: Calcein AM viability assay, CCL39 cells, 72 h; format: cell-based, hamster
Method: as §1

[3] = biological target: T1, bovine serum albumin (BSA) (Bos taurus, UniProt P02769); experiment: Spectrofluorometric analysis of fluorogenicity upon BSA binding; format: physicochemical; settings: for increase in absolute fluorescence upon addition of 1% BSA: 1% BSA compared to PBS
T1 construct: purchased Sigma A7906
Method: Spectrofluorometric measurements were carried out by using the Agilent Cary Eclipse instrument. The voltage of the photomultiplier tube (PMT) was set to 600 for EvoSiR4 and EvoSiR6, and for 500 for SiR (4). Fluorescence of the probes was measured at concentrations ranging from 30 to 3000 nM in PBS containing various amounts of bovine serum albumin (BSA) (Sigma, A7906). Quenching experiments for the calculation of BSA binding were performed by adding a 1:1 molar ratio of tannic acid dissolved in ddH2O (Sigma, 403040) to the solution prior to measuring fluorescence.

[4] = biological target: T2, human CaSR (Homo sapiens, UniProt P41180); experiment: In vitro labeling of CaSR expressing (HCAR) and control (CCL39) cells, fluorescence microscopy; format: cell-based; settings: for fold increase in skewness of pixel intensity distribution, CaSR+ (HCAR) vs CaSR- (CCL39) cells: 500 nM probe; for fold mean fluorescence difference between CaSR+ and CaSR- cells: 72 h incubation
T2 construct: host or cells: CCL39 hamster lung fibroblasts stably transfected (HCAR), Geneticin selection
T2 sequence (P41180 20-1078): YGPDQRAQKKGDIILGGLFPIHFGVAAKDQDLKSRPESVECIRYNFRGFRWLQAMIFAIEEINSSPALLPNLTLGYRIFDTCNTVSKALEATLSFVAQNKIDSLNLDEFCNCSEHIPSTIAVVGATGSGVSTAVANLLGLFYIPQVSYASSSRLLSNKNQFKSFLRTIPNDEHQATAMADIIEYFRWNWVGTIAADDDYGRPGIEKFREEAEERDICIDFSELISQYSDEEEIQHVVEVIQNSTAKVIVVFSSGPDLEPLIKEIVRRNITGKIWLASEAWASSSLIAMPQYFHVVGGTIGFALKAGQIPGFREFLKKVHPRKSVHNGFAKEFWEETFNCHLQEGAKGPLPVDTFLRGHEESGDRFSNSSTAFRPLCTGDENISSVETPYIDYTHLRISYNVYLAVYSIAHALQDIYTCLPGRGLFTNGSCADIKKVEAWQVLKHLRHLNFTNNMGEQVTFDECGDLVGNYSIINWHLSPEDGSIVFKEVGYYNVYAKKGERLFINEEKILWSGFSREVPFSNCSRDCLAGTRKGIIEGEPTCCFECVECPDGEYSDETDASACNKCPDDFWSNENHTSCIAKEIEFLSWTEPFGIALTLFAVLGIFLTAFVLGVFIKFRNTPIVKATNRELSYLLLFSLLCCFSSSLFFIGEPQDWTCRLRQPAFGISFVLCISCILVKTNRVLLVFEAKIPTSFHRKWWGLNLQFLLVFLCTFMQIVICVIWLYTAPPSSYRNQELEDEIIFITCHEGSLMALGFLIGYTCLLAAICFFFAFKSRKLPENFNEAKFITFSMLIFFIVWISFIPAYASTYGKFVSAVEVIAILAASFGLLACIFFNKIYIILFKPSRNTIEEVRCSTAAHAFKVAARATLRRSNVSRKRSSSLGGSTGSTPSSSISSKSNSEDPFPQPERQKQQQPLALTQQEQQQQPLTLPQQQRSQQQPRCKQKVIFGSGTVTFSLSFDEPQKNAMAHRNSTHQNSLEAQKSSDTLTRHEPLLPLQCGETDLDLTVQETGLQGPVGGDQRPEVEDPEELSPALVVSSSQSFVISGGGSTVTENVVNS
Method: HCAR (CaSR+) and CCL39 (CaSR−) cells were kindly obtained from Novartis AG (Basel, Switzerland) and validated in house. The cells were seeded into μ-slide 18 well plates (ibidi, 81816) at a density of 5000 cells per well and were incubated for 24 h under standard culturing conditions. As our preliminary data indicated considerable nonspecific labeling of dying cells and cellular debris, a viability staining was introduced to ensure probe specificity.[29] Thus, after washing twice with HBSS, cells were incubated in 10 μM Calcein AM solution containing 0.02% Pluronic F-127 and 0.1% DMSO for 45 min at 37 °C. The solution was then removed and washed twice in HBSS before the addition of the HBSS solution containing the SiR probes. All probe solutions were protected from light exposure and contained 0.5% DMSO and various concentrations of BSA depending on the experiment. Incubation with the fluorescent probes was 20 min long, after which a single washing step was introduced with HBSS before imaging. Images of the cells (Calcein: FITC channel, SiR: Cy5 channel) were acquired with a Nikon Eclipse TI2 inverted wide-field fluorescence microscope using a 60× magnification oil immersion objective (Nikon CFI Plan Fluor, 60×, NA = 0.85). For each well, a minimum of 3 images were acquired. For each image, cells were segmented to generate labels on the FITC channel postacquisition using the deep neural network-based Cellpose package in Python 3.9 (model_type: cyto2, diameter: 200, flow_threshold: 0.4).[30] To normalize pixel intensity values across images, for each image, a background value was calculated by taking the average pixel intensity value of the pixels in which no cellular label was present and were negative for the EvoSiR label (triangle thresholding used). For each cell, the skewness of the value distribution and the mean of the Cy5 pixel intensities were calculated. The procedure for evaluating the long-term labeling (72 h) of EvoSiR probes on CCL39 and HCAR cells was similar, with the following modifications: images were retrieved using 10× magnification air objectives (Nikon CFI Plan Fluor 10×, NA = 0.3), in the neural network model, the diameter parameter was set to 30, and only the mean Cy5 pixel intensities per cell object were retrieved.

T1 sequence (P02769 25-607): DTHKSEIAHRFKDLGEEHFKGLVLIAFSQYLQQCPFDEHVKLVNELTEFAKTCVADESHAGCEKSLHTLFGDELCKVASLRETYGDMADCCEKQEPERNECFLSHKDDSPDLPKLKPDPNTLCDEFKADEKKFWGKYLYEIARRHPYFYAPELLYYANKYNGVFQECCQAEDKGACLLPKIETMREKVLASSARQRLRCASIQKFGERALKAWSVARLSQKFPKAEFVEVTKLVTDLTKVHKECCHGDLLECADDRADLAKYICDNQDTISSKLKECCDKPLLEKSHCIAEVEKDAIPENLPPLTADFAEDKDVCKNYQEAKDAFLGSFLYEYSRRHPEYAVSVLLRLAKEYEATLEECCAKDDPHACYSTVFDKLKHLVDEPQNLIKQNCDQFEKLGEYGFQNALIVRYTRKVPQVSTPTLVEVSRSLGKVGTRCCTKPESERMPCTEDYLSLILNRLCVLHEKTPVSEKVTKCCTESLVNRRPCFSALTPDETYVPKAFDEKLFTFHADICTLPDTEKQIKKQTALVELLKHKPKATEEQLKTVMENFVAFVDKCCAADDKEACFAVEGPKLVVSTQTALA

Row | reduction in skewness of pixel intensity distribution of EvoSiR4 labeling by competition ([4]; CaSR+ cells preincubated with 0–500 nM evocalcet in 0.1% BSA) | SMILES | effect on viability at 50 μM [1] | IC50 [1] | IC50 [2] | effect on viability at 50 μM [2] | fold increased fluorescence in 0.1% BSA compared to PBS [3] | increase in absolute fluorescence upon addition of 1% BSA [3] | fold increase in skewness of pixel intensity distribution, CaSR+ (HCAR) vs CaSR- (CCL39) cells ([4]; 0.1% BSA) | concentration above which skewness significantly increased for HCAR compared to CCL39 ([4]; 1% BSA) | fold mean fluorescence difference between CaSR+ and CaSR- cells ([4]; 50 nM) | fold mean fluorescence difference between CaSR+ and CaSR- cells ([4]; 200 nM) | concentration at which skewness values saturate ([4]; HCAR (CaSR+) cells, 0.1% BSA) | concentration above which skewness significantly increased for HCAR compared to CCL39 ([4]; no BSA and 0.1% BSA) | concentration below which no effect on viability [1] | concentration below which no effect on viability [2] | effect of preincubating the BSA solution with evocalcet on EvoSiR4 fluorescence ([3]; evocalcet 30–6000 nM, 350 nM EvoSiR4)
1 |  | Cc1cc(C(=O)NCCCCNC(=O)Cc2ccc(N3CC[C@H](N[C@H](C)c4cccc5ccccc45)C3)cc2)ccc1C1=C2C=CC(=[N+](C)C)C=C2[Si](C)(C)c2cc(N(C)C)ccc21 [EvoSiR4] | significantly reduced | 27.3 ± 2.3 µM | 36 ± 3.8 µM | significantly reduced | 4 fold | 400% | 3.7 fold | above 2500 nM | 1.3 fold | 2.5 fold | 500 nM | above 500 nM |  |  | 
2 |  | Cc1cc(C(=O)NCCCCCCNC(=O)Cc2ccc(N3CC[C@H](N[C@H](C)c4cccc5ccccc45)C3)cc2)ccc1C1=C2C=CC(=[N+](C)C)C=C2[Si](C)(C)c2cc(N(C)C)ccc21 [EvoSiR6] | significantly reduced | 26 ± 2.3 µM | 36 ± 6 µM | significantly reduced | 1.8 fold | 250% | 2.3 fold |  |  |  |  |  |  |  | 
3 | 55% | C[C@@H](N[C@H]1CCN(c2ccc(CC(=O)O)cc2)C1)c1cccc2ccccc12 [evocalcet] |  |  |  |  |  |  |  |  |  |  |  |  | < 50 µM | < 50 µM | No significant decrease; also recorded: no significant difference
